# Test results taken from patent US10647719B2, “Bicyclic compounds as dual ATX/CA inhibitors” (Hoffmann-La Roche Inc., priority 2015, dated 2020).
# Where two headings read alike, the source gives them in different places.
# Legend:
# [1] = target: human ATX (Homo sapiens (Human), UniProt Q13822); experiment: Human ATX enzyme inhibition assay (fluorescence quenching, MR121 substrate); assay type: biochemical
# Description: Human ATX Enzyme Inhibition Assay
# ATX inhibition was measured by a fluorescence quenching assay using a specifically labeled substrate analogue (MR121 substrate). To obtain this MR121 substrate, BOC and TBS protected 6-amino-hexanoic acid (R)-3-({2-[3-(2-{2-[2-(2-amino-ethoxy)-ethoxy]-ethoxy}-ethoxy)-propionylamino]-ethoxy}-hydroxy-phosphoryloxy)-2-hydroxy-propyl ester (Ferguson et al., Org Lett 2006, 8 (10), 2023) was labeled with MR121 fluorophore (CAS 185308-24-1, 1-(3-carboxypropyl)-11-ethyl-1,2,3,4,8,9,10,11-octahydro-dipyrido[3,2-b:2′,3′-i]phenoxazin-13-ium) on the free amine of the ethanolamine side and then, after deprotection, subsequently with tryptophan on the side of the aminohexanoic acid.
# (§1) Assay working solutions were made as follows:
# Assay buffer (50 mM Tris-HCl, 140 mM NaCl, 5 mM KCl, 1 mM CaCl2, 1 mM MgCl2, 0.01% Triton-X-100, pH 8.0;
# ATX solution: ATX (human His-tagged) stock solution (1.08 mg/mL in 20 mM bicine, pH 8.5, 0.15 M NaCl, 10% glycerol, 0.3% CHAPS, 0.02% NaN3), diluted to 1.4-2.5× final concentration in assay buffer;
# MR121 substrate solution: MR121 substrate stock solution (800 μM MR121 substrate in DMSO), diluted to 2-5× final concentration in assay buffer.
# Test compounds (10 mM stock in DMSO, 8 μL) were obtained in 384 well sample plates (Corning Costar #3655) and diluted with 8 μL DMSO. Row-wise serial dilutions were made by transferring 8 μL cpd solution to the next row up to row O. The compound and control solutions were mixed five times and 2 μL were transferred to 384 well assay plates (Corning Costar #3702). Then, 15 μL of 41.7 nM ATX solution was added (30 nM final concentration), mixed five times and then incubated for 15 minutes at 30° C. 10 μL of MR121 substrate solution was added (1 μM final concentration), mixed 30 times and then incubated for 15 minutes at 30° C.
# [2] = target: Human carbonic anhydrase II (hCA-II) (Homo sapiens (Human), UniProt P00918); experiment: Human carbonic anhydrase-II inhibition assay (absorbance, 4-nitrophenyl acetate substrate); assay type: biochemical
# Description: Human Carbonic Anhydrase-II Inhibition Assay
# Human carbonic anhydrase II (hCA-II) inhibition was measured by an absorbance method using 4-nitrophenyl acetate (4-NPA) as its substrate. 4-NPA can be catalyzed by active hCA II via a zinc-hydroxide mechanism. The nitrophenolate in the products can be ionized to generate a bright yellow anion with high absorbance at 348 to 400 nm, as reported in the literature (Armstrong et al., J. Biol. Chem. 1966, 241, 5137-5149). OD340 nm was chosen for detecting hCA II substrate conversion.
# as §1
# Assay buffer: 50 mM MOPS, 33 mM Na2SO4, 1 mM EDTA, 0.5 mg/ml BSA, pH 7.5;
# Enzyme solution: hCA-II (human, full length) stock solution (1.0 mg/mL in 20 mM HEPES, 50 mM NaCl, pH 7.4), diluted to 2133× final concentration in assay buffer;
# 4-NPA substrate solution: 4-NPA substrate stock solution (250 mM in DMSO, stored at −20° C.), diluted to 50× final concentration in deionized water.
# Test compounds (10 mM stock in DMSO, 100 μL) were obtained in […] sample plates (Corning Costar #3655) and diluted to 0.5 mM. Column-wise serial dilutions were made by transferring 20 μL compound solutions to the next column, from column 3 up to 22. After this, 1.2 μL were transferred to 384 well assay plates (Corning Costar #3701). Then 30 μL of 16 nM hCA II solution was added (8 nM final concentration), mixed five times. 30 μL of 4-NPA substrate solution was added (2.5 mM final concentration), mixed five times. Absorbance at 340 nm was then measured immediately as time zero. The assay plates were incubated at room temperature for 1 hour and then measured as time 1 hour (Perkin Elmer EnVision 2103; Filter: Photometric 340; Light intensity 60%; Number of flashes: 10). IC50 values and Ki values were calculated from these readouts.
# [3] = human His-tagged ATX 30 nM, MR121 substrate 1 μM, 30° C., read-out: ATX IC50
# [4] = hCA II 8 nM, 4-NPA 2.5 mM, absorbance 340 nm, room temperature 1 hour, read-out: CA-II IC50
IC50 [1],IC50 [2],"IC50 [1, 3]","IC50 [2, 4]",Compound
12 nM,1.9 nM,–,–,"Cc1nnn(Cc2cc(Cl)cnc2COC(=O)N2CC3=C(C2)CN(C(=O)c2ccc(S(N)(=O)=O)cc2F)C3)n1 [Example 2.04, [5-chloro-3-[(5-methyltetrazol-2-yl)methyl]pyridin-2-yl]methyl 2-(2-fluoro-4-sulfamoylbenzoyl)-1,3,4,6-tetrahydropyrrolo[3,4-c]pyrrole-5-carboxylate]"
14 nM,18 nM,–,–,"NS(=O)(=O)c1ccc(C(=O)N2CCC3=C(CCN(C(=O)OCc4ccc(OC(F)(F)F)cc4)C3)C2)c(F)c1 [Example 2.01, [4-(trifluoromethoxy)phenyl]methyl 6-(2-fluoro-4-sulfamoylbenzoyl)-1,3,4,5,7,8-hexahydro-2,6-naphthyridine-2-carboxylate]"
–,–,15 nM,2 nM,"CC(C)(C)C(=O)Nc1ccc(Cl)nc1COC(=O)N1CC2=C(C1)CN(C(=O)c1cc(F)c(S(N)(=O)=O)cc1F)C2 [Example 1.20, [6-chloro-3-(2,2-dimethylpropanoylamino)pyridin-2-yl]methyl 2-(2,5-difluoro-4-sulfamoylbenzoyl)-1,3,4,6-tetrahydropyrrolo[3,4-c]pyrrole-5-carboxylate]"
–,–,4 nM,5 nM,"CC(C)(C)C(=O)Nc1cc(C(F)(F)F)cnc1COC(=O)N1CC2=C(C1)CN(C(=O)c1ccc(S(N)(=O)=O)cc1F)C2 [Example 1.04, [3-(2,2-dimethylpropanoylamino)-5-(trifluoromethyl)pyridin-2-yl]methyl 2-(2-fluoro-4-sulfamoylbenzoyl)-1,3,4,6-tetrahydropyrrolo[3,4-c]pyrrole-5-carboxylate]"
3 nM,–,–,–,"CC(C)(C)C(=O)Nc1cc(C#N)cnc1COC(=O)N1CC2=C(C1)CN(C(=O)c1ccc(S(N)(=O)=O)c(F)c1F)C2 [Example 1.26, [5-cyano-3-(2,2-dimethylpropanoylamino)pyridin-2-yl]methyl 2-(2,3-difluoro-4-sulfamoylbenzoyl)-1,3,4,6-tetrahydropyrrolo[3,4-c]pyrrole-5-carboxylate]"
–,–,8 nM,19 nM,"Cc1nnn(Cc2cc(C(F)(F)F)ccc2CCC(=O)N2CC3=C(C2)CN(C(=O)c2ccc(S(N)(=O)=O)cc2F)C3)n1 [Example 1.10, 3-fluoro-4-(5-(3-(2-((5-methyl-2H-tetrazol-2-yl)methyl)-4-(trifluoromethyl)phenyl)propanoyl)-1,2,3,4,5,6-hexahydropyrrolo[3,4-c]pyrrole-2-carbonyl)benzenesulfonamide]"
–,–,9 nM,10.2 nM,"CC(C)(C)C(=O)Nc1cc(Cl)cnc1COC(=O)N1CC2=C(C1)CN(C(=O)c1cc(F)c(S(N)(=O)=O)cc1F)C2 [Example 1.16, [5-chloro-3-(2,2-dimethylpropanoylamino)pyridin-2-yl]methyl 2-(2,5-difluoro-4-sulfamoylbenzoyl)-1,3,4,6-tetrahydropyrrolo[3,4-c]pyrrole-5-carboxylate]"
4 nM,9 nM,–,–,"NS(=O)(=O)c1ccc(C(=O)N2CC3=C(CN(C(=O)COc4ccc(OC(F)(F)F)cc4)C3)C2)c(F)c1 [Example 3.05, 3-fluoro-4-[2-[2-[4-(trifluoromethoxy)phenoxy]acetyl]-1,3,4,6-tetrahydropyrrolo[3,4-c]pyrrole-5-carbonyl]benzenesulfonamide]"
6 nM,5 nM,–,–,"NS(=O)(=O)c1ccc(C(=O)N2CC3=C(CN(C(=O)CCc4ccc(OC(F)(F)F)cc4)C3)C2)c(F)c1 [Example 3.02, 3-fluoro-4-[2-[3-[4-(trifluoromethoxy)phenyl]propanoyl]-1,3,4,6-tetrahydropyrrolo[3,4-c]pyrrole-5-carbonyl]benzenesulfonamide]"
–,–,–,7 nM,"CC(C)(C)C(=O)Nc1cc(C#N)cnc1COC(=O)N1CC2=C(C1)CN(C(=O)c1ccc(S(N)(=O)=O)cc1F)C2 [Example 1.24, [5-cyano-3-(2,2-dimethylpropanoylamino)pyridin-2-yl]methyl 2-(2-fluoro-4-sulfamoylbenzoyl)-1,3,4,6-tetrahydropyrrolo[3,4-c]pyrrole-5-carboxylate]"
3 nM,8 nM,–,–,"NS(=O)(=O)c1ccc(C(=O)N2CC3=C(CN(C(=O)OCc4ccc(OC(F)(F)F)cc4)C3)C2)nc1 [Example 2.02, [4-(trifluoromethoxy)phenyl]methyl 2-(5-sulfamoylpyridine-2-carbonyl)-1,3,4,6-tetrahydropyrrolo[3,4-c]pyrrole-5-carboxylate]"
–,–,6 nM,2 nM,"CC(C)(C)C(=O)Nc1ccc(Cl)nc1COC(=O)N1CC2=C(C1)CN(C(=O)c1ccc(S(N)(=O)=O)c(F)c1F)C2 [Example 1.22, [6-chloro-3-(2,2-dimethylpropanoylamino)pyridin-2-yl]methyl 2-(2,3-difluoro-4-sulfamoylbenzoyl)-1,3,4,6-tetrahydropyrrolo[3,4-c]pyrrole-5-carboxylate]"
–,–,27 nM,10 nM,"CC(C)(C)C(=O)Nc1cc(C(F)(F)F)cnc1COC(=O)N1CC2=C(C1)CN(C(=O)c1ccc(S(N)(=O)=O)c(F)c1F)C2 [Example 1.09, [3-(2,2-dimethylpropanoylamino)-5-(trifluoromethyl)pyridin-2-yl]methyl 2-(2,3-difluoro-4-sulfamoylbenzoyl)-1,3,4,6-tetrahydropyrrolo[3,4-c]pyrrole-5-carboxylate]"
–,–,6 nM,12.9 nM,"CC(C)(C)C(=O)Nc1cc(Cl)cnc1COC(=O)N1CC2=C(C1)CN(C(=O)c1ccc(S(N)(=O)=O)cc1F)C2 [Example 1.12, [5-chloro-3-(2,2-dimethylpropanoylamino)pyridin-2-yl]methyl 2-(2-fluoro-4-sulfamoylbenzoyl)-1,3,4,6-tetrahydropyrrolo[3,4-c]pyrrole-5-carboxylate]"
–,–,7 nM,11 nM,"CC(C)(C)C(=O)Nc1cc(C(F)(F)F)cnc1COC(=O)N1CC2=C(C1)CN(C(=O)c1ccc(S(N)(=O)=O)cn1)C2 [Example 1.05, [3-(2,2-dimethylpropanoylamino)-5-(trifluoromethyl)pyridin-2-yl]methyl 2-(5-sulfamoylpyridine-2-carbonyl)-1,3,4,6-tetrahydropyrrolo[3,4-c]pyrrole-5-carboxylate]"
–,–,3 nM,3.6 nM,"CC(C)(C)C(=O)Nc1cc2ccccc2nc1COC(=O)N1CC2=C(C1)CN(C(=O)c1ccc(S(N)(=O)=O)cc1F)C2 [Example 4.01, [3-(2,2-dimethylpropanoylamino)quinolin-2-yl]methyl 2-(2-fluoro-4-sulfamoylbenzoyl)-1,3,4,6-tetrahydropyrrolo[3,4-c]pyrrole-5-carboxylate]"
–,–,1 nM,–,"CC(C)(C)C(=O)Nc1cc(C(F)(F)F)cnc1COC(=O)N1CCC2=C(CCN(C(=O)c3ccc(S(N)(=O)=O)cc3F)C2)C1 [Example 1.28, [3-(2,2-dimethylpropanoylamino)-5-(trifluoromethyl)pyridin-2-yl]methyl 6-(2-fluoro-4-sulfamoylbenzoyl)-1,3,4,5,7,8-hexahydro-2,6-naphthyridine-2-carboxylate]"
–,–,–,8 nM,"CC(C)(C)C(=O)Nc1cc(C#N)cnc1COC(=O)N1CC2=C(C1)CN(C(=O)c1c(F)cc(S(N)(=O)=O)cc1F)C2 [Example 1.25, [5-cyano-3-(2,2-dimethylpropanoylamino)pyridin-2-yl]methyl 2-(2,6-difluoro-4-sulfamoylbenzoyl)-1,3,4,6-tetrahydropyrrolo[3,4-c]pyrrole-5-carboxylate]"
